Source: patent publication US12415926B2, “Small tunable fluorophores for the detection and imaging of biomolecules” (The University Court of the University of Edinburgh, priority 2019, dated 2025)

What was measured:
[1] = system: Neutrophils; test: Uptake of lactic acid analogue in live cells by flow cytometry (hypoxia/normoxia, lactate competition); assay type: cell-based, human
Method: (§1) B) Fluorescence emission of live cells after incubation with compound SCOTfluor-84 (100 μM) at different oxygen tensions (normoxia: blue; hypoxia: red) and in normoxic cells after competition with lactic acid (no lactate: red; 5 mM lactate: blue). Values as means and s.e.m as error bars. C) Time-lapse TIRF tracking of fluorescent particles in untreated (top) and DMOG-treated (10 μM, bottom) HeLa cells after incubation with compound SCOTfluor-84 (100 μM). Scale bars: 1 μm. D) Histograms of the diffusion coefficients of fluorescent particles in normoxic (blue) and hypoxic (red) cells. Dotted lines delineate fast and slow diffusion species. Mean diffusion coefficients (D) were determined after averaging the tracks of multiple particles for each condition (n=1,009 for untreated; n=2,906 for DMOG-treated).
Ex vivo experiments with fresh human peripheral blood from healthy donors were approved by the Accredited Medical Regional Ethics Committee (AMREC, reference number 15-HV-013). Peripheral blood polymorphonuclear cells from healthy volunteers were isolated as previously described. Briefly, citrated blood (3.8%) was centrifuged at room temperature at 350 g for 20 min, platelet-rich plasma was removed and separation from erythrocytes was achieved by Dextran sedimentation and fractionation of leukocytes using isotonic Percoll gradient. […] Flow cytometry data were analyzed using FlowJo software. […]

[2] = system: HeLa cells; test: Cytotoxicity assay in HeLa cells; settings: 100 μM and 75 μM (1% DMSO), 4 h at 37° C.
Method: Cell viabilities were normalized to incubation in cell culture media under the same experimental conditions. A solution of 40% DMSO in cell culture media was used as a known cytotoxic positive control. Values represented as means±s.e.m. (n=3).

[3] = Optical properties of SCOTfluors (absorbance, emission, extinction coefficient, quantum yield, solvatochromism); assay type: physicochemical
Method: All compounds were dissolved in different organic solvents, including toluene, chloroform, tetrahydrofuran, ethanol, DMSO and water (final concentrations: 10-50 μM). Fluorescence spectra were acquired on a spectrophotometer upon excitation at their maxima absorbance wavelengths.
The optical properties of SCOTfluor-80, 79, 78, 76 and 81 were compared with the properties of the original NBD.

[4] = system: HeLa cells; test: TIRF single-particle tracking of intracellular diffusion; assay type: cell-based, human; settings: DMOG-treated (10 μM) vs untreated, 100 μM
Method: as §1
Imaging was performed using a home-built, bespoke single-molecule total internal reflection fluorescence (TIRF) microscope. […] Fluorescence collected by the same objective was separated from the returning TIR beam by a dichroic mirror DI02-R514 (Semrock) for 515 nm and was passed through appropriate filters [515 nm: BLP01-561R, FF01-607/36 (Semrock)]. Fluorescence was then passed through a 2.5× beam expander and recorded on an EMCCD camera (Delta Evolve 512, Photometrics) operating in frame transfer mode (EMGain=11.5 e^−/ADU and 250 ADU/photon). […]

O=C(O)[C@H](O)CNc1ccc([N+](=O)[O-])c2n[se]nc12 [SCOTfluor-84, (R)-2-hydroxy-3-((7-nitrobenzo[c][1,2,5]selenadiazol-4-yl)amino)propanoic acid]
uptake in hypoxic vs normoxic cells ([1]; hypoxic (1% O2) vs normoxic (20% O2), 100 μM): Increased uptake | fluorescence staining under competition with excess lactic acid ([1]; normoxic cells, 5 mM lactic acid): markedly reduced | cytotoxicity (cell viability) [2]: no significant cytotoxicity | emission [3]: ~605 nm | mean diffusion coefficients of fluorescent particles, hypoxic vs normoxic cells [4]: higher mean diffusion coefficients
